From US9114171B2, “Racecadotril liquid compositions” (McNeil-PPC, Inc., priority 2012, dated 2015)

Assays:
[1] = Stability of Racecadotril in Water; format: physicochemical; conditions: room temperature and 40° C.
Method: (§1) For comparative purposes, the stability of racecadotril was tested at room temperature and at 40° C. Test Methods Sample Preparation: • 1. Pipet 1 mL of Racecadotril solution into a 100 mL volumetric flask (V.F.) • 2. Dilute to volume with the same buffer used in the solution preparation. • 3. Further dilute the sample solution to about 0.1 mg/mL if necessary. […] Parameters may be modified to optimize chromatography. • The assay of Racecadotril is determined by using the external standard injected. The degradation products levels are determined by % peak area relative to the Racecadotril peak. Chromatographic Conditions (European Pharmacopoeia Racecadotril Method): […]

[2] = Stability of Racecadotril in Beta-Hydroxypropyl-Cyclodextrin (Beta-HPCD), Table 5; format: physicochemical
Method: Formulations of racecadotril in beta-hydroxypropyl-cyclodextrin were evaluated (Table 5).
as §1, with “Test” for “For comparative purposes, the stability of racecadotril was tested at room temperature and at 40° C. Test”

racecadotril present ([1]; in water, at 1 week): less than 1% | stability in water [1]: unstable after 12 hours
Structure (SMILES): CC(=O)SCC(Cc1ccccc1)C(=O)NCC(=O)OCc1ccccc1 (racemic) [Racecadotril]
solubility utilizing Beta-HPCD [2]: higher solubility was achieved utilizing the Beta-HPCD | stability in Beta-HPCD versus buffers alone ([2]; 40° C.): stability is similar to that in buffers alone
